# Key:
# [1] = target: T1, Sco GlgEI-V279S (Streptomyces coelicolor, UniProt Q9L1K2, V279S); conditions: earlier work; cited from earlier work
# [2] = target: T1, Sco GlgEI-V279S; conditions: ratio of Ki values
# T1 sequence (Q9L1K2 whole entry V279S): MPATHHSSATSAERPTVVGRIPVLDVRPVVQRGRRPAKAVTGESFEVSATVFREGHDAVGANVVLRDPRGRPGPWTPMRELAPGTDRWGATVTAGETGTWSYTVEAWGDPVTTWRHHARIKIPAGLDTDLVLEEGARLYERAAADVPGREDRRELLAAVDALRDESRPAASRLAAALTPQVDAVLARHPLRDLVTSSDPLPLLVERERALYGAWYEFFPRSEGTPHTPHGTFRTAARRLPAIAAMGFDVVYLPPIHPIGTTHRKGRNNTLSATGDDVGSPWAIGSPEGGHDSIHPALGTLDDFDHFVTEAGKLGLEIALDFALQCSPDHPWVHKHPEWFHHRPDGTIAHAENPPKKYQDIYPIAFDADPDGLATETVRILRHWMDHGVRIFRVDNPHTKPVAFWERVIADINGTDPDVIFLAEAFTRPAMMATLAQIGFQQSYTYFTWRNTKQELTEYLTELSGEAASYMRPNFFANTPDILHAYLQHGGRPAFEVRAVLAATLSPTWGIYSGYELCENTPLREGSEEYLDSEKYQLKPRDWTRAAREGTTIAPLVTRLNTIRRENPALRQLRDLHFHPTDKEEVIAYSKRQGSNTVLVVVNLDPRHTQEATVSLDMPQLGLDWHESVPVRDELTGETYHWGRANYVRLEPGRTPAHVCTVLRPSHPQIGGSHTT
Structure (SMILES),inhibitory activity against Sco GlgEI-V279S (in words) [1],fold more potent than previously reported inhibitor 4 ([2]; 5 versus 4) [fold],fold more potent than two carbon phosphonate 6 ([2]; 5 versus 6) [fold]
"OC[C@H]1N[C@H](CO)[C@@H](O[C@H]2O[C@H](CO)[C@@H](O)[C@H](O)[C@H]2O)[C@@H]1O [Compound 4, 2,5-dideoxy-3-O-α-D-glucopyranosyl-2,5-imino-D-mannitol]",moderate inhibitory activity,–,–
"O=P(O)(O)CN1C(CO)C(O)C(O[C@H]2O[C@H](CO)[C@@H](O)[C@H](O)[C@H]2O)C1CO (stereo partly drawn) [Compound 5, ((3-Hydroxy-2,5-bis(hydroxymethyl)-(3-O-α-D-glucopyranosyl)pyrrolidin-1-yl)methyl)phosphonic acid]",–,2,2
